From publication PMC4945466 (Journal of medicinal chemistry, 2016)
Like-named read-outs stand apart in the source and are kept apart here.

Columns and labels:
[1] = molecular target: recombinant HIV-1 IN (integrase strand transfer) (Human immunodeficiency virus type 1 group M subtype B, UniProt P04585); assay: INST biochemical assay
[2] = system: HIV-1 IIIB in CEM-SS cells; assay: microbe, parasite or virus in culture; assay type: cell-based; details: for Antiviral Screening (10 μM) CPE reduction %: HIV-1 IIIB in CEM-SS cells, versus viral control
[3] = system: CEM-SS cells; assay: Cell viability / cytotoxicity in cytoprotection assay; assay type: cell-based
[4] = as above; assay type: cell-based; details: human
[5] = read-out: INST IC50, mean ± SD, at least three independent experiments

Molecule “1-(Hydroxy)-1,2,3,6-tetrahydro-2,6-dioxo-4-(phenylamino)pyrimidine-5-carboxamide [Compound 49]” has an IC50 [1, 5] of over 100 µM.

For “3-(Benzyloxy)-6-(ethylamino)-N-(4-fluorobenzyl)-N-methyl-2,4-dioxo-1,2,3,4-tetrahydropyrimidine-5-carboxamide [Compound 53]”, the “Antiviral Screening (10 μM) CPE reduction %” value [2] was 0%, the “Antiviral Screening (10 μM) viability %” value ([3]; 10 µM) was 89% and the IC50 [1, 5] was 7 ± 3.3 µM.

Work on `O=C(NCc1ccccc1)c1c(Nc2ccccc2)[nH]c(=O)n(O)c1=O` [Compound 24, N-Benzyl-1-(hydroxy)-1,2,3,6-tetrahydro-2,6-dioxo-4-(phenylamino)pyrimidine-5-carboxamide] yielded an IC50 [1] of over 100 µM.

Molecule `O=C(NCc1ccccc1)c1c(Nc2ccc(-c3ccccc3)cc2)[nH]c(=O)n(O)c1=O` [Compound 25, N-Benzyl-1-(hydroxy)-1,2,3,6-tetrahydro-2,6-dioxo-4-(biphenylamino)pyrimidine-5-carboxamide] has an IC50 [1] of over 100 µM.

In the case of `CCNc1[nH]c(=O)n(O)c(=O)c1C(=O)NCc1ccc(F)c(F)c1` [Compound 42, N-(3,4-difluorobenzyl)-1-(hydroxy)-4-(ethylamino)-1,2,3,6-tetrahydro-2,6-dioxopyrimidine-5-carboxamide], the “Antiviral Screening (10 μM) CPE reduction %” value [2] is reported as “inactive” and the “Antiviral Screening (10 μM) viability %” value ([3]; 10 μM, CEM-SS cells, versus cell control) is reported as “cytotoxic”.

With `CCNc1[nH]c(=O)n(O)c(=O)c1C(=O)NCc1ccc(Cl)c(F)c1` [Compound 44, N-(4-Chloro-3-fluorobenzyl)-1-(hydroxy)-4-(ethylamino)-1,2,3,6-tetrahydro-2,6-dioxopyrimidine-5-carboxamide] the “TI (therapeutic index, CC50/EC50)” value ([2]; cytoprotection assay, CEM-SS cells) was 100.

Molecule `CCNc1[nH]c(=O)n(O)c(=O)c1C(=O)NCCCl` [Compound 50, 1-(Hydroxy)-N-(2-chloroethyl)-4-(ethylamino)-1,2,3,6-tetrahydro-2,6-dioxopyrimidine-5-carboxamide] has an IC50 [1] of over 100 µM.

`CCNc1[nH]c(=O)n(O)c(=O)c1C(=O)Oc1ccccc1` [Compound 51, Phenyl-1-(hydroxy)-4-(ethylamino)-1,2,3,6-tetrahydro-2,6-dioxopyrimidine-5-carboxylate] gave an IC50 [1] of over 100 µM.

Molecule `CCNc1c(C(=O)NCc2ccc(F)cc2)c(=O)n(O)c(=O)n1C` [Compound 52, N-(4-Fluorobenzyl)-3-(hydroxy)-6-(ethylamino)-1,2,3,4-tetrahydro-1-methyl-2,4-dioxopyrimidine-5-carboxamide] has an IC50 [1] of over 100 µM.

With `O=C(NCc1ccccc1)c1c(O)n(O)c(=O)[nH]c1=O` [Compound 54, N-Benzyl-1,6-dihydroxy-2,4-dioxo-1,2,3,4-tetrahydropyrimidine-5-carboxamide] the inhibition at 10 µM ([2]; Human immunodeficiency virus 1, IIIB, CEM-SS, 144 h, read-out: Antiviral Screening (10 μM) CPE reduction %) was 26% and the viability at 6 days, 10 µM [4] was 100%.
